Measured values reported in US12263172B2, “Toll-like receptor agonists for use in the treatment of hepatitis b” (priority 2019, dated 2025).
Values joined by “and” are separate entries in the source; they are usually repeats but may differ in a detail not shown here. Equal values may be shown once. “Also recorded” adds a separate entry of the source.

Tests used:
[1] = test system: HBV; assay: anti-HBV activity in vivo in AAV/HBV mice; conditions: 20 mg/kg
[2] = pharmacokinetics and metabolism in animals; assay type: in vivo, rats and monkeys
Source text: (§1) Exposure increased more than dose-proportionally at low doses. Variability in exposure was high. • In vitro plasma protein binding was between 79.6% and 94.2% in animals and humans. Volume of distribution after intravenous dosing was high. […] Main metabolic pathways were oxygenation, hydrogenation, dehydrogenation, dealkylation, acetylation, glucuronidation, and/or glutathione conjugation. • In rats, >80% of drug-related material was found in feces, 11% to 20% in bile, and <4% in urine. […] There were no effects on embryofetal development up to 1 mg/kg/dose in rats and 30 mg/kg/dose in rabbits.

[3] = pharmacokinetics and excretion in rat; assay type: in vivo
Source text: as §1

[4] = 6-month toxicity study in Cynomolgus monkeys; conditions: cynomolgus monkey, in vivo
Source text: as §1

[5] = 14-week rat toxicity study; assay type: in vivo; conditions: 5 mg/kg biw
Source text: as §1

[6] = embryofetal development in rats; assay type: in vivo
Source text: as §1

[7] = Phase 1 single oral dose pharmacokinetics in healthy adults; assay type: in vivo; conditions: for AUC(0-t): read-out: AUC24 h
Method: This ongoing trial is a Phase 1 randomized, double-blind, placebo-controlled study in male and female healthy adult volunteers aged 18-55 years. All volunteers provided written, informed consent. For the SAD phase, 8-10 volunteers per cohort were randomized 6-8:2 to receive a single oral dose of either Compound 4 0.2 (N=6), 0.6 (N=6), 1.25 (N=8) or 1.8 mg (N=6) or placebo (N=2/dose group) under fasted conditions; following an ˜6-week washout period, the cohort subjects which had received 1.25 mg under fasted conditions in Cohort 4 were given the same 1.25 mg dose (N=7) under fed conditions (a standard meal consumed before dosing), in Cohort 6 (FIG. 1). Escalation of the Compound 4 dose was only permitted following a review of the safety and PK data from the previous cohort.
Following a single dose of Compound 4, intensive blood samples were collected over the first 24 hours, samples were then collected daily through Day 7, and weekly samples were collected through Day 35. Plasma concentrations of Compound 4 were evaluated using a validated liquid chromatography with tandem mass spectrometry method; the lower limit of quantification was 1 pg/mL. PK parameters were estimated using non-compartmental analysis (WinNonlin®, Certara, Princeton, NJ, USA). Descriptive statistics were used to summarize plasma concentrations and derived PK parameters of Compound 4. The impact of food on PK parameters was analyzed using geometric least square mean point estimates (mixed-effects model on log-transformed values with treatment as fixed effect and subject as a random effect).

[8] = Phase 1 multiple dose (Part 2): safety and tolerability in healthy adults; assay type: in vivo, human; conditions: 1.25 mg qw fasted
Method: All volunteers were followed up for 4 weeks and safety and tolerability were continuously assessed throughout the study. All adverse events (AEs) were recorded from the time of consent to the completion visit and were graded using the DAIDS toxicity grading scale. Volunteers also underwent physical examinations, electrocardiograms, vital sign checks and clinical laboratory parameters (chemistry, haematology, urinalysis).

[9] = both sexes, human, plasma, oral, 0.2 mg, single dose 0.2 mg fasted, mean ± SD
[10] = both sexes, human, plasma, oral, 0.6 mg, single dose 0.6 mg fasted, mean ± SD
[11] = both sexes, human, plasma, oral, 1.25 mg, single dose 1.25 mg fasted, mean ± SD
[12] = both sexes, human, plasma, oral, 1.25 mg, single dose 1.25 mg fed, mean ± SD
[13] = both sexes, human, plasma, oral, 1.8 mg, single dose 1.8 mg fasted, mean ± SD

## CCCCOc1nc(N)c2[nH]cc(Cc3ccc(CN4CCCC4)cc3)c2n1 [Compound 4]
[1]
  HBsAg seroconversion: in all animals
  HBsAg serum levels: undetectable
  time post-treatment reductions in HBsAg levels were sustained: up to 3 weeks
[2]; in vivo
  blood clearance: moderate
[2]; intravenous dosing
  volume of distribution: high
[2]; oral dosing in rats and monkeys
  tissue distribution: highest levels in liver, small intestines and brain
[2]; rat, monkey, in vivo
  half-life: 300 to 840 min
[2]; rat, monkey, in vivo, oral dosing
  Tmax: 48 to 120 min
[3]; rat, in vivo, po
  bioavailability: 15%
[3]; rats
  drug-related material found in feces: > 80%
  drug-related material found in urine: < 4%
[4]; q2w
  NOAEL at 6 months: 4.5 mg/kg
[4]; qw
  NOAEL at 6 months: 3 mg/kg
[4]; 3.0 mg/kg qw or 4.5 mg/kg q2w, read-out: AUC24h at NOAEL
  AUC(0-t): 13.2 to 44.8 ng·h/mL
[4]; 3.0 mg/kg qw or 4.5 mg/kg q2w, read-out: Cmax at NOAEL
  Cmax: 2.56 to 16.4 ng/mL
[5]
  brain inflammation: Brain inflammation occurred
[6]; pregnant rats, 3 mg/kg biw
  post-implantation loss and fetal weights: Post-implantation loss and fetal weights effects were noted
[6]; rats
  dose without effects on embryofetal development: up to 1 mg/kg/dose
[7]; 1.25 mg, 90% CI 65.89-105.71
  least square mean ratio point estimate of AUC48h, fed vs fasted: 83.45
[7]; before 1.25 mg fed dose, on average 41 days after 1.25 mg fasted dose, mean ± SD
  Predose Level: 1.85 pg/mL and 1.85 ± 0.597 pg/mL
[7]; [9]
  Cmax: 0.0344 ± 0.0179 ng/mL
  AUC(0-t): 0.19 ± 0.0972 ng·h/mL
[7]; both sexes, human, plasma, oral, 0.2 mg, single dose 0.2 mg fasted, median (range), read-out: tmax
  Tmax: 30 min
[7]; [10]
  Cmax: 0.109 ± 0.0281 ng/mL
  AUC(0-t): 0.594 ± 0.21 ng·h/mL
[7]; both sexes, human, plasma, oral, 0.6 mg, single dose 0.6 mg fasted, median (range), read-out: tmax
  Tmax: 30 min
[7]; [11]
  Cmax: 0.143 ± 0.0659 ng/mL
  AUC(0-t): 0.815 ± 0.251 ng·h/mL
[7]; both sexes, human, plasma, oral, 1.25 mg, single dose 1.25 mg fasted, median (range), read-out: tmax
  Tmax: 45 min
[7]; [12]
  Cmax: 0.152 ± 0.0764 ng/mL
  AUC(0-t): 0.659 ± 0.194 ng·h/mL
[7]; both sexes, human, plasma, oral, 1.25 mg, single dose 1.25 mg fed, median (range), read-out: tmax
  Tmax: 30 min
[7]; [13]
  Cmax: 0.309 ± 0.136 ng/mL
  AUC(0-t): 1.37 ng·h/mL
[7]; both sexes, human, plasma, oral, 1.8 mg, single dose 1.8 mg fasted, median (range), read-out: tmax
  Tmax: 30 min
[7]; both sexes, human, plasma, oral, before 1.25 mg fed dose, on average 41 days after 1.25 mg fasted dose, mean ± SD, read-out: Predose Level
  concentration at 41 days: 0.00185 ng/mL
[7]; both sexes, human, plasma, oral, single dose 1.25 mg fasted, range 1.86-3.81, read-out: mean renal clearance (converted)
  CL renal: 42.8 mL/min
[7]; both sexes, human, plasma, po, single oral doses 0.2 to 1.8 mg, read-out: tmax, range over doses
  Tmax: 30 to 60 min
[7]; both sexes, human, plasma, single oral doses 0.2 to 1.8 mg, read-out: median t1/2 term, range over doses
  half-life: 5.25 to 36.2 days
[7]; single dose 0.2 mg fasted, median (range)
  t1/2term: 150 (126-212) h
[7]; single dose 0.2 mg fasted, n = 1
  CL/F: 149 L/h
[7]; single dose 0.6 mg fasted, median (range)
  t1/2term: 284 (104-479) h
[7]; single dose 0.6 mg fasted, n = 1
  CL/F: 244 L/h
[7]; single dose 1.25 mg fasted
  excreted as unchanged drug in urine within the first 24 hours: less than 0.2%
[7]; single dose 1.25 mg fasted, median (range)
  t1/2term: 448 (372-502) h
[7]; single dose 1.25 mg fasted, n = 3
  CL/F: 254 L/h
[7]; single dose 1.25 mg fed, median (range)
  t1/2term: 591 (448-868) h
[7]; single dose 1.8 mg fasted, median (range)
  t1/2term: 194 (185-205) h
[7]; single oral doses 0.2 to 1.8 mg fasted
  dose proportionality of exposure: increased in proportion with the dose; also recorded: dose-proportional pharmacokinetics
[8]
  ECG actual value: Heart rate (bpm) Low: 0 n (%)
  ECG actual value: QTcB (ms) ]450; 480]: 1 (16.7%) n (%)
  ECG change from reference: QTcB (ms) >60: 1 (16.7%) n (%)
  ECG change from reference: QTcB (ms) [30; 60]: 1 (16.7%) n (%)
  ECG change from reference: QTcF (ms) [30; 60]: 1 (16.7%) n (%)
  lab toxicity: Amylase (U/L), upwards, Grade 1: 2 (33.3%) n (%)
